Biological target: T1, Pl-GAL-8 (Paracentrotus lividus, UniProt A0A0U5C3R9)
T1 construct: gene galectin-8; tags kept; expressed in E. coli BL21(DE3)
T1 sequence (A0A0U5C3R9 1-311): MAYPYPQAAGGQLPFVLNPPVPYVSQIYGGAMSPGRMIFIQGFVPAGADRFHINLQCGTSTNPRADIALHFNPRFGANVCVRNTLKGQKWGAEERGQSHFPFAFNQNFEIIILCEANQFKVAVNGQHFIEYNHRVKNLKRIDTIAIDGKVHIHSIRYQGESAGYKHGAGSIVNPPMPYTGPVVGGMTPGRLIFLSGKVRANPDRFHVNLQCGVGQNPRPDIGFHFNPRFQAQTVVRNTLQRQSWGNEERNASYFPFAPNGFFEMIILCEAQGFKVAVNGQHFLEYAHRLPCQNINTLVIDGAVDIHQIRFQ
Assay: inhibition of hemagglutination of human red blood cells
Assay type: cell-based
Conditions: 0.25 uM protein; PBS, room temperature, 40 min; lowest dose tested (1-20 mM)

effective inhibitory concentration: 1 mM
Structure (SMILES): OC[C@H]1O[C@@H](O[C@H]2[C@H](O)[C@@H](O)C(O)O[C@@H]2CO)[C@H](O)[C@@H](O)[C@H]1O (stereo partly shown) [lactose]
